Results published in ChEMBL document CHEMBL3045758, “Quantitative Structure-Activity Relationships of Fungicidal N-Phenylformamidoximes” (J Pestic Sci, 1992).

Experiments:
[1] = system: Botrytis cinerea; experiment: Fungicidal activity against benzimidazole-resistant Botryotinia fuckeliana infected kidney bean leaf at 100 ppm after 7 days in greenhouse conditions by detached leaf test; type: functional
[2] = system: Botrytis cinerea; experiment: Fungicidal activity against benzimidazole-resistant Botryotinia fuckeliana at 25 ppm after 48 hr by poisoned food technique; type: functional
[3] = system: Botrytis cinerea; experiment: Fungicidal activity against benzimidazole-resistant Botryotinia fuckeliana at 200 ppm after 48 hr by poisoned food technique; type: functional
[4] = system: Phaseolus vulgaris; experiment: Phytotoxicity against Phaseolus vulgaris (kidney bean) assessed as necrosis of leaf at 100 ppm after 7 days in greenhouse conditions; type: organism-based; details: in vivo, 168 h
[5] = system: Botrytis cinerea; experiment: Fungicidal activity against benzimidazole-resistant Botryotinia fuckeliana at 6.2 ppm after 48 hr by poisoned food technique; type: functional
[6] = 1-octanol/water distribution coefficient, log P of the compound; type: physicochemical
[7] = system: Botrytis cinerea; experiment: Fungicidal activity against benzimidazole-resistant Botryotinia fuckeliana after 48 hr by poisoned food technique; type: functional, organism-based; details: Botrytis cinerea, 48 h; read-out: pEC50 (converted)

CCO/N=C/Nc1cc(C)c(OCC)c(C)c1 [N'-ETHOXY-N-(4-ETHOXY-3,5-DIMETHYLPHENYL)FORMIMIDAMIDE]
Activity [1]: 50% | Activity [2]: 100% | Activity [3]: 100% | Activity [4]: <= 10% | Activity [5]: 50%

CCO/N=C/Nc1ccc(Cl)cc1C [N-(4-CHLORO-2-METHYLPHENYL)-N'-ETHOXYFORMIMIDAMIDE]
Activity [1]: <25% | Activity [2]: <25% | Activity [3]: 70% | Activity [4]: 11% | Activity [5]: <25%

C#CCc1c(Cl)cc(N/C=N/O)cc1Cl
Activity [4]: Non-toxic | logP [6]: 2.8 | EC50 [7]: 77.6 nM

C#CCc1c(Cl)cc(N/C=N/OCOC)cc1Cl
Activity [4]: Non-toxic | logP [6]: 3.2 | EC50 [7]: 33.1 nM

C#CCc1c(Cl)cc(N/C=N/Oc2ccccc2)cc1Cl
Activity [4]: Non-toxic | logP [6]: 4.4 | EC50 [7]: 295 nM

CCO/N=C/Nc1ccc(Cl)c(Cl)c1
Activity [1]: <25% | Activity [2]: <25% | Activity [3]: 70% | Activity [4]: 11% | Activity [5]: <25%

CCO/N=C/Nc1cc(Cl)c(SCC)c(Cl)c1
Activity [4]: Non-toxic | logP [6]: 4.6 | EC50 [7]: 170 nM

CCO/N=C/Nc1cc(C)c(OCC)c(OCC)c1 [N-(3,4-DIETHOXY-5-METHYLPHENYL)-N'-ETHOXYFORMIMIDAMIDE]
Activity [1]: 70% | Activity [2]: 100% | Activity [3]: 100% | Activity [4]: Non-toxic | Activity [5]: 100%

CCO/N=C/Nc1ccccc1
Activity [1]: <25% | Activity [2]: <25% | Activity [3]: <25% | Activity [4]: Non-toxic | Activity [5]: <25%

CCCCc1c(Cl)cc(N/C=N/OCC)cc1Cl
Activity [4]: Non-toxic | logP [6]: 5.6 | EC50 [7]: 1740 nM

CCO/N=C/Nc1cc(Cl)c(C)c(Cl)c1 [N-(3,5-DICHLORO-4-METHYLPHENYL)-N'-ETHOXYFORMIMIDAMIDE]
Activity [1]: <25% | Activity [2]: <25% | Activity [3]: <25% | Activity [4]: Non-toxic | Activity [5]: <25%

CCO/N=C/Nc1ccc(CC)cc1
Activity [1]: <25% | Activity [2]: <25% | Activity [3]: 26% | Activity [4]: Non-toxic | Activity [5]: <25%

CCO/N=C/Nc1ccc(OCC)c(OCC)c1
Activity [1]: 50% | Activity [2]: 70% | Activity [3]: 100% | Activity [4]: Non-toxic | Activity [5]: 26%

CCO/N=C/Nc1cc(Cl)c(Cl)c(Cl)c1 [N'-ETHOXY-N-(3,4,5-TRICHLOROPHENYL)FORMIMIDAMIDE]
Activity [1]: <25% | Activity [2]: <25% | Activity [3]: 26% | Activity [4]: Non-toxic | Activity [5]: <25%

CCO/N=C/Nc1cc(Cl)c(OCC)c(OCC)c1 [N-(3-CHLORO-4,5-DIETHOXYPHENYL)-N'-ETHOXYFORMIMIDAMIDE]
Activity [1]: 100% | Activity [2]: 100% | Activity [3]: 100% | Activity [4]: Non-toxic | Activity [5]: 100%

CCO/N=C/Nc1ccc(C)c(Cl)c1 [N-(3-CHLORO-4-METHYLPHENYL)-N'-ETHOXYFORMIMIDAMIDE]
Activity [1]: <25% | Activity [2]: 26% | Activity [3]: 100% | Activity [4]: <= 10% | Activity [5]: <25%

CCO/N=C/Nc1cc(Cl)c(SSCC)c(Cl)c1
Activity [4]: Non-toxic | logP [6]: 5 | EC50 [7]: 617 nM

CCO/N=C/Nc1c(C)cccc1C
Activity [1]: <25% | Activity [2]: <25% | Activity [3]: <25% | Activity [4]: 11% | Activity [5]: <25%

CCO/N=C/Nc1cc(Cl)c(O)c(Cl)c1
Activity [4]: Non-toxic | logP [6]: 2.8 | EC50 [7]: 794 nM

C#CCc1c(Cl)cc(N/C=N/OCC=C)cc1Cl
Activity [4]: Non-toxic | logP [6]: 3.7 | EC50 [7]: 67.6 nM

CCO/N=C/Nc1ccc(OCC)cc1C [N'-ETHOXY-N-(4-ETHOXY-2-METHYLPHENYL)FORMIMIDAMIDE]
Activity [1]: <25% | Activity [2]: <25% | Activity [3]: <25% | Activity [4]: <= 10% | Activity [5]: <25%

C#CCc1c(Cl)cc(N/C=N/OCCCl)cc1Cl
Activity [4]: Non-toxic | logP [6]: 3.7 | EC50 [7]: 30.9 nM

C=CCOc1c(Cl)cc(N/C=N/OCC)cc1Cl
Activity [4]: Non-toxic | logP [6]: 4.3 | EC50 [7]: 34.7 nM

CCO/N=C/Nc1cc(Cl)c(F)c(Cl)c1
Activity [4]: <= 10% | logP [6]: 4 | EC50 [7]: 794 nM

CCO/N=C/Nc1ccccc1OCC
Activity [1]: <25% | Activity [2]: 100% | Activity [3]: 100% | Activity [4]: Non-toxic | Activity [5]: <25%

CCCOc1c(Cl)cc(N/C=N/OCC)cc1Cl
Activity [4]: Non-toxic | logP [6]: 4.6 | EC50 [7]: 174 nM

CCO/N=C/Nc1cc(Cl)c(OCC#N)c(Cl)c1
Activity [4]: Non-toxic | logP [6]: 3.1 | EC50 [7]: 174 nM

C#CCc1c(Cl)cc(N/C=N/OC/C=C\Cl)cc1Cl
Activity [4]: Non-toxic | logP [6]: 3.9 | EC50 [7]: 60.3 nM

CCO/N=C/Nc1ccc(Cl)cc1Cl
Activity [1]: <25% | Activity [2]: <25% | Activity [3]: 100% | Activity [4]: <= 10% | Activity [5]: <25%

CCO/N=C/Nc1cccc(Cl)c1
Activity [1]: <25% | Activity [2]: <25% | Activity [3]: 50% | Activity [4]: <= 10% | Activity [5]: <25%

CCO/N=C/Nc1cc(Cl)c(OCC(C)C)c(Cl)c1
Activity [4]: <= 10% | logP [6]: 5 | EC50 [7]: 16200 nM

CCO/N=C/Nc1cc(Cl)c([S+]([O-])CC)c(Cl)c1 (stereo unspecified)
Activity [4]: Non-toxic | logP [6]: 2.9 | EC50 [7]: 162000 nM

CCO/N=C/Nc1c(Cl)c(Cl)cc(Cl)c1Cl [N'-ETHOXY-N-(2,3,5,6-TETRACHLOROPHENYL)FORMIMIDAMIDE]
Activity [1]: <25% | Activity [2]: <25% | Activity [3]: <25% | Activity [4]: Non-toxic | Activity [5]: <25%

CCO/N=C/Nc1cc(Cl)c(OCC)c(Cl)c1 [N-(3,5-DICHLORO-4-ETHOXYPHENYL)-N'-ETHOXYFORMIMIDAMIDE]
Activity [1]: 100% | Activity [2]: 100% | Activity [3]: 100% | Activity [4]: Non-toxic | Activity [5]: 90%

C#CCc1c(Cl)cc(N/C=N/OC(C)C)cc1Cl
Activity [4]: Non-toxic | logP [6]: 3.9 | EC50 [7]: 33.1 nM

CC#CCOc1c(Cl)cc(N/C=N/OCC)cc1Cl
Activity [4]: Non-toxic | logP [6]: 4 | EC50 [7]: 166 nM

CCO/N=C/Nc1cc(Cl)c(S(=O)(=O)CC)c(Cl)c1
Activity [4]: <= 10% | logP [6]: 2.8 | EC50 [7]: 30900 nM

CCO/N=C/Nc1cc(Cl)c(OC(C)C)c(Cl)c1
Activity [4]: <= 10% | logP [6]: 4.4 | EC50 [7]: 6920 nM

CCO/N=C/Nc1cc(Cl)c(OC)c(Cl)c1
Activity [4]: Non-toxic | logP [6]: 3.7 | EC50 [7]: 191 nM

CCO/N=C/Nc1cc(Cl)ccc1Cl
Activity [1]: <25% | Activity [2]: <25% | Activity [3]: 70% | Activity [4]: Non-toxic | Activity [5]: <25%

CCO/N=C/Nc1cc(Cl)cc(Cl)c1OCC [N-(3,5-DICHLORO-2-ETHOXYPHENYL)-N'-ETHOXYFORMIMIDAMIDE]
Activity [1]: <25% | Activity [2]: 90% | Activity [3]: 100% | Activity [4]: Non-toxic | Activity [5]: 70%

CCO/N=C/Nc1cccc(OCC)c1
Activity [1]: <25% | Activity [2]: 26% | Activity [3]: 100% | Activity [4]: Non-toxic | Activity [5]: <25%

C#CCc1c(Cl)cc(N/C=N/OCCOCC)cc1Cl
Activity [4]: Non-toxic | logP [6]: 3.7 | EC50 [7]: 60.3 nM

C#CCc1c(Cl)cc(N/C=N/OCCC)cc1Cl
Activity [4]: Non-toxic | logP [6]: 4 | EC50 [7]: 33.1 nM

C#CCc1c(Cl)cc(N/C=N/OCSC)cc1Cl
Activity [4]: Non-toxic | logP [6]: 3.6 | EC50 [7]: 31.6 nM

C#CCc1c(Cl)cc(N/C=N/OCC(=O)OCC)cc1Cl
Activity [4]: Non-toxic | logP [6]: 3.6 | EC50 [7]: 1450 nM

CCO/N=C/Nc1cc(Cl)c(OCCCl)c(Cl)c1
Activity [4]: Non-toxic | logP [6]: 4 | EC50 [7]: 32.4 nM

CCO/N=C/Nc1cc(Cl)c(OCOC)c(Cl)c1
Activity [4]: Non-toxic | logP [6]: 3.7 | EC50 [7]: 174 nM

C#CCc1c(Cl)cc(N/C=N/OCC#N)cc1Cl
Activity [4]: Non-toxic | logP [6]: 3 | EC50 [7]: 33.9 nM

C#CCc1c(Cl)cc(N/C=N/Oc2ccc(C)cc2)cc1Cl
Activity [4]: Non-toxic | logP [6]: 4.8 | EC50 [7]: 851 nM

CCO/N=C/Nc1cc(Cl)c(CC)c(Cl)c1
Activity [4]: Non-toxic | logP [6]: 4.8 | EC50 [7]: 389 nM

C#CCOc1c(Cl)cc(NC=NOCC)cc1Cl
Activity [4]: Non-toxic | logP [6]: 3.6 | EC50 [7]: 17.4 nM

C#CCO/N=C/Nc1cc(Cl)c(CC#C)c(Cl)c1
Activity [4]: Non-toxic | logP [6]: 3.3 | EC50 [7]: 33.9 nM

C#CCc1c(Cl)cc(N/C=N/OCc2ccccc2)cc1Cl
Activity [4]: Non-toxic | logP [6]: 4.2 | EC50 [7]: 2880 nM

C#CCc1c(Cl)cc(N/C=N/OCOCC)cc1Cl
Activity [4]: Non-toxic | logP [6]: 3.5 | EC50 [7]: 63.1 nM

C#CCc1c(Cl)cc(N/C=N/OC/C=C/Cl)cc1Cl
Activity [4]: Non-toxic | logP [6]: 3.9 | EC50 [7]: 302 nM

C#CCc1c(Cl)cc(N/C=N/OCCCC)cc1Cl
Activity [4]: Non-toxic | logP [6]: 4.4 | EC50 [7]: 316 nM

C#CCc1c(Cl)cc(N/C=N/OC(C)CC)cc1Cl (stereo unspecified)
Activity [4]: Non-toxic | logP [6]: 4.2 | EC50 [7]: 158 nM
